Laboratory results from PubChem BioAssay (NCI).
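Where inhibition never reached the appropriate level, the endpoint shown equals the highest concentration tested. Otherwise, values were interpolated linearly from a five-concentration, 48-hour dose response in 96-well plates. GI50 marks 50% less growth. TGI: total growth inhibition.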

Tests used:
Experiment in all cases: NCI tumour cell line growth inhibition, 48 h
[1] = test system: SNB-75 CNS
[2] = test system: 786-0 renal
[3] = test system: KM12 colon
[4] = test system: CAKI-1 renal
[5] = test system: MOLT-4 leukemia
[6] = test system: OVCAR-5 ovarian
[7] = test system: K-562 leukemia
[8] = test system: HCC-2998 colon
[9] = test system: SNB-19 CNS
[10] = test system: T-47D breast

Structure (SMILES)	TGI [1] [µM]	TGI [2] [µM]	TGI [3] [µM]	TGI [4] [µM]	TGI [5] [µM]	TGI [6] [µM]	TGI [7] [µM]	TGI [8] [µM]	TGI [9] [µM]	TGI [10] [µM]	GI50 [4] [µM]
c1ccc(/C(=N/Nc2ccncn2)c2ccccn2)cc1	57.8	> 100	93	> 100	49.2	> 100	> 100	> 100	> 100		
O=C1C=CC(=O)c2c(O)c(NCCOCCO)c(Cl)c(O)c21	30.9	17.2	15.1	39.6	27.4	34.1	> 100				
Cc1c(C(=O)OCc2ccccc2)[n+](=O)c2cc(Cl)c(Cl)cc2n1[O-]		30.5	24.6	28.2	21.5	39.2	57.6	28.5	68.1	23.6	
COc1cccc(N[C@@H]2c3cc4c(cc3C(c3cc(OC)c(O)c(OC)c3)[C@H]3C(=O)OCC32)OCO4)c1 (some centres undefined)			7.06	2.12	0.164	> 74.2	14.1	3.79	27.7		
Cc1ccc(S(=O)CC(CF)OCn2cc(C)c(=O)[nH]c2=O)cc1 (centres undefined)	> 100	> 100	> 100	> 100	> 100	> 100		> 100	> 100	> 100	
COc1cccc(C=O)c1[O-].[O]=[U](=[O])([OH2+])[OH2+]	81.3	71.9	> 100	> 100	73.2	> 100	> 100	> 100	45.5		> 100
C#CCn1c(=O)c(C)cn(/C(=C\C(=O)OCC)C(=O)OCC)c1=O	36	> 100	53.6	2.86	> 26.5	23.9	> 100		39.4	5.95	
CC1(C)CC2(CC(C)(C)N1O)NC(=O)OC2=O	> 100		> 100	> 100	> 100	> 100	> 100	> 100	> 100		
O=c1oc(C(C(F)(F)F)C(F)(F)F)nc2ccccc12		> 100		> 100	> 100	> 100	> 100	> 100	> 100		
O=C1NC(=O)C(C(CC(=O)c2ccc(Cl)cc2)c2ccc(Cl)cc2)C(=O)N1 (centres undefined)	> 100	> 100	> 100		> 100	> 100	> 100	> 100	> 100		
COc1ccc(C(=O)CC(c2ccccc2)[C@H]2C(c3ccc(OC)cc3)=Nc3c(nc(SC)n(C)c3=O)NC2c2ccccc2)cc1 (some centres undefined)		> 100	> 100	> 100	> 100	> 100	> 100	> 100	> 100	> 100	
COc1ccc(-c2oc3cc(O)cc(O)c3c(=O)c2OC)cc1				60	87.9	> 100	> 100	62.9	> 100	> 100	
